Legend:
acutely ischemic muscle = assay: Contractility in the acutely ischemic muscle; assay type: in vivo
Procedure: The contractility in the acutely ischemic muscle was measured in a similar experimental procedure, as described under 1). The muscle, initially normally supplied with blood, was made to contract isometrically by direct electrical stimulation (1.2 Hz, 2.5 mA). The right femoral artery was then occluded for 5 min by means of a clamp. […] The vessel was then reopened and the starting contractility before the first occlusion was attained. During the second occlusion which then followed, the preparations to be tested were administered intravenously in aqueous solution via the jugular vein. 4-8 animals were employed per preparation and dose. The decrease in the contractility during occlusion with and without substance administration was compared and the percentage change was used to evaluate the substance activity. The substances according to the invention, for example the compound of Example 7, were also remarkable in this test for outstanding effects.

[1] = test system: photochemically-induced thrombosis in mesenterial arterioles; assay: Inhibition of photochemically-induced thrombosis in mesenterial arterioles; assay type: in vivo, rat
Procedure: In this model, rats were anesthetized as described above under 2). The investigations were carried out on mesenterial arterioles having a diameter of 11 to 50 lm. A thrombosis was induced in a modification in accordance with a method known from the literature (Herrmann, K. H. Microvasc. Res. 26, 238-249, 1983) and is based on the photochemical release of singlet oxygen, which leads locally to an endothelial lesion. The animals to be investigated received an intravenous injection of 0.3 ml of a 10% strength solution of fluorescein in isothiocyanate--Dextran 70 (FITC--Dextran 70 s, Sigma, Munich). The arterole was looked for under the microscope and centered in the observation field. The FITC--Dextran in the blood vessel was then excited using a special lamp and filter device (excitation 490 nm, emission 510 nm). For evaluation of thrombus formation, the time was taken which extended from the point of excitation to the formation of a first thrombus on the wall. 5 vessels in each animal were examined in this manner.

[2] = Acute toxicity (LD50 range); settings: mouse, in vivo, single administration, NMRI mice, 7 days
Procedure: The determination of the LD50 ranges was carried out in standard fashion by means of the mortality occurring in the course of 7 days in NMRI mice after single intravenous (i.v.) or intraperitoneal (i.p.) administration (NMRI=NIH Medical Research Institute).

laser-induced thrombosis [3] = assay: Inhibition of laser-induced thrombosis in hyperlipidemic, spontaneously hypertensive, stroke-prone rats; assay type: in vivo, rat (hyperlipidemic hypertensive)
laser-induced thrombosis [4] = assay: Inhibition of laser-induced thrombosis in atherosclerotic rabbits; assay type: in vivo, rabbit (atherosclerotic); settings: 30 mg/kg daily for 14 days
[5] = test system: skeletal muscle of the rat (chronic ischemic); assay: Effect on the contractility of the skeletal muscle after chronic ischemia (tiring index); assay type: in vivo, rat (male Wistar); settings: 6 mg/kg p.o. over 7 days, n = 4-6; for TI of ischemic treated muscle: tiring index = maximum contractility / residual force after 5 min stimulation; for change in vivo at 6 mg/kg: Rattus norvegicus, po, 168 h, smaller value = more effective, read-out: Percentage change (TI of ischemic treated muscle vs TI of normal non-treated muscle)
Description: 1) Effect on the Contractility of the Skeletal Muscle After Chronic Ischemia
In recent years, a marked change has taken place in ideas about the pathophysiology of chronic peripheral arterial occlusive disease as scientific interest has to an increasing extent shifted from the macrocirculation to the microcirculation. Disturbances in the microcirculation therefore manifest themselves in an undersupply of substrates with tissue ischemia resulting therefrom which, in turn, leads to an impairment in the function of the extremity concerned. The logical consequence of this is that the target organ skeletal muscle comes more and more into the forefront. […] The clinical activity is in fact also consistently determined in humans with the aid of the painless walking distance on the moving walkway.
Male Wistar rats having a body weight of 380 to 410 g were used as experimental animals. Under hexobarbital anesthesia (®Evipan--sodium, 200 mg/kg BW (=body weight) i.p.), a unilateral ligature of the right femoral artery was applied to the animals in the groin. After sprinkling penicillin sulfonamide powder for antibiotic wound care, the small operation wound was closed and the animals were continuously observed until they were completely awake. One week later, the administration of substance began by oral administration using a stomach tube (6 mg/kg BW, carboxymethylcellulose-sodium suspension) and was continued for 7 days (single administration per day, about 7h30 to 8h30). The contractility was measured 24 h after the last administration of substance in order to exclude acute effects, to be precise by the following experimental protocol:
Superfusion with physiological saline solution (37° C.) was used to avoid drying out and cooling. The mean arterial blood pressure was recorded continuously via Statham (=blood pressure measuring device) by means of a cannulated caroted artery to control the physiological status of the animals during the experiment. All animals breathed spontaneously by means of an inserted tracheal tube.
After these preparations, the muscle was made to contract (Stimulator I, Hugo Sachs, Federal Republic of Germany) by direct electrical stimulation (2.5 mA, 2 Hz). The absolute contractility in grams at various times of stimulation was used as the measured parameter. […] If the maximum contractility at the start of stimulation is now divided by the residual force remaining after 5 minutes' tiring stimulation, a "tiring index TI" for the muscle concerned can be calculated; the ability to tire here is larger the larger TI is numerically.
4 to 6 individual experiments were carried out for each test preparation.

[6] = test system: laser-induced thrombosis in mesenterial arterioles; assay: Inhibition of laser-induced thrombosis in mesenterial arterioles of the rat; assay type: in vivo, rat (female Sprague-Dawley); settings: Rattus norvegicus, po, read-out: Percentage change vs control (inhibition of laser-induced thrombosis); for inhibition in vivo at 10 mg/kg: 10 mg/kg p.o.
[7] = test system: capillary bed of the skeletal muscle of the rat; assay: Laser-Doppler flow measurement of erythrocyte flux in acutely ischemic skeletal muscle; assay type: in vivo, rat (male Wistar); settings: during occlusion
Procedure: Using laser-Doppler flow measurements (LDF), the erythrocyte flux (the number of cells flowing past under the laser beam x their velocity) can be measured in a noninvasive and continuous manner in the capillary bed of the skeletal muscle of the rat (perimed PF2 laser-Doppler flowmeter, Perimed, Sweden). […] The apparatus was set as follows: 12 kHz, gain 10, time constant 1.5 sec, 37° C. The right femoral artery of male Wistar rats having a body weight of 380-430 g was exposed and the skin and the connective tissue was dissected away over a small muscle area (anterior tibia). The probe was placed about 1 mm above this area. […] At this point, the test substances were infused intravenously in aqueous solution (0.03 and 0.6 mg/kg/min). The maximum percentage increase in the erythrocyte flux after administration of substance during the occlusion (see also Okyayuz-Baklouti, I., European J. of Pharmacology, 166: 75-86, 1989) was used as the measuring parameter for the substance activity. […] 3-7 animals were employed per preparation and dose.

Row | SMILES | LD50 at 168 h ([2]; iv) [mg/kg] | TI of ischemic treated muscle [5] | change in vivo at 6 mg/kg [5] [%] | inhibition in vivo at 10 mg/kg [6] [%] | LD50 at 168 h ([2]; ip) [mg/kg] | other results
1 | Cn1cnc(S(=O)(=O)NCCCN2CCOCC2)c1 [Example 7, N-(3-Morpholinopropyl)-1-methyl-4-imidazolesulfonamide] | > 100 | 2.79 | 0.3 | 36 |  | improvement of contractility in the acutely ischemic muscle (acutely ischemic muscle; 0.03 mg/kg/min i.v.): +17.2%; improvement of contractility in the acutely ischemic muscle (acutely ischemic muscle; 0.3 mg/kg/min i.v.): +25.2%; inhibition of photochemically-induced thrombosis ([1]; 1 mg/kg p.o.): 69%; inhibition of photochemically-induced thrombosis ([1]; 3 mg/kg i.v.): 36%; inhibition of photochemically-induced thrombosis ([1]; 3 mg/kg p.o.): 75%; inhibition of photochemically-induced thrombosis ([1]; 10 mg/kg i.v.): 56%; inhibition of photochemically-induced thrombosis ([1]; 10 mg/kg p.o.): 130%; inhibition of photochemically-induced thrombosis (in words) ([1]; rat, in vivo): inhibited in a dose-dependent and statistically significant manner; inhibition of laser-induced thrombosis (laser-induced thrombosis [3]; 10 mg/kg daily for 7 days): 18%; inhibition of laser-induced thrombosis (laser-induced thrombosis [3]; 30 mg/kg daily for 7 days): 32%; inhibition of laser-induced thrombosis (laser-induced thrombosis [4]): 36%; maximum percentage increase in the erythrocyte flux ([7]; 0.03 mg/kg/min i.v. infusion): +53.3%; maximum percentage increase in the erythrocyte flux ([7]; 0.6 mg/kg/min i.v. infusion): +80.6%
2 | Cn1cnc(S(=O)(=O)N2CCN(c3ccc(O)cc3)CC2)c1 [Example 25] |  | 2.11 | 6.6 | 22 | > 300 | 
3 | CN1CCN(CCCNS(=O)(=O)c2cn(C)cn2)CC1 [Example 27, N-[3-(4-Methylpiperazino)propyl]-1-methyl-4-imidazolesulfonamide dihydrogenfumarate] | > 100 | 2.6 | 32.6 |  |  | inhibition in vivo at 20 mg/kg ([6]; 20 mg/kg p.o.): 23%
4 | Cl.Cn1ccnc1S(=O)(=O)NCCCN1CCOCC1 [Example 29, N-(3-Morpholinopropyl)-1-methyl-2-imidazolesulfonamide hydrochloride] | > 100 | 2.74 | 38.4 | 21 |  | 
5 | Cl.Cn1ccnc1S(=O)(=O)NCCN1CCOCC1 [Example 30, N-(2-Morpholinoethyl)-1-methyl-2-imidazolesulfonamide hydrochloride] | > 100 | 2.82 | -14.2 | 45 |  | 
6 | Cl.Cn1cnc(S(=O)(=O)NCCCN2CCOCC2)c1Cl [Example 32, N-(3-Morpholinopropyl)-5-chloro-1-methyl-4-imidazolesulfonamide hydrochloride] | > 200 | 2.51 | 6.4 | 21 |  | 
7 | Cl.Cn1cnc(S(=O)(=O)NCCCCCN2CCOCC2)c1Cl [Example 34, N-(5-Morpholino-1-pentyl)-5-chloro-1-methyl-4-imidazolesulfonamide hydrochloride] | > 100 | 1.98 | 0 | 15 |  | 
8 | Cn1cnc(S(=O)(=O)N2CCN(c3ccc(O)cc3)CC2)c1Cl [Example 40] |  | 3.18 | 34.7 | 17 | > 1200 | 
9 | Cn1cnc(S(=O)(=O)NCCc2ccc(O)cc2)c1Cl [Example 46, N-(4-hydroxyphenethyl-)-5-chloro-1-methyl-4-imidazolesulfonamide] |  | 2.05 | -6.4 | 29 | > 1200 | inhibition in vivo at 30 mg/kg ([6]; 30 mg/kg p.o.): 29%
10 | Cl.Cn1cncc1S(=O)(=O)NCCCN1CCOCC1 [Example 53, N-(3-Morpholino-1-propyl)-1-methyl-5-imidazolesulfonamide hydrochloride] | > 100 | 3.18 | -3.3 | 18 |  | 
11 | Cn1cnc(S(=O)(=O)NCCCCCCNS(=O)(=O)c2cn(C)cn2)c1 [Example 54, 1,6-Bis(1-methyl-4-imidazolesulfonamido)hexane] |  | 2.55 | 37.8 | 17 | > 1200 | 
12 | CC(=O)CCCCn1c(=O)c2c(ncn2C)n(C)c1=O [Pentoxyfylline, 1-(5-oxohexyl)-3,7-dimethylxanthine, reference compound] |  | 3.20 | 43.5 |  |  | activity in acute ischemic muscle contractility test (in words) (acutely ischemic muscle; i.v.): only showed marginal activity; inhibition of photochemically-induced thrombosis ([1]; 1 mg/kg p.o.): 29%; inhibition of photochemically-induced thrombosis ([1]; 3 mg/kg i.v.): 3%; inhibition of photochemically-induced thrombosis ([1]; 3 mg/kg p.o.): 18%; inhibition of photochemically-induced thrombosis ([1]; 10 mg/kg i.v.): 38%; inhibition of photochemically-induced thrombosis ([1]; 10 mg/kg p.o.): 68%; maximum percentage increase in the erythrocyte flux ([7]; 0.03 mg/kg/min i.v. infusion): 24.6%; maximum percentage increase in the erythrocyte flux ([7]; 0.6 mg/kg/min i.v. infusion): 33.1%

— patent US5232922A, “Imidazole compounds, processes for their preparation, pharmaceuticals based on these compounds and some intermediates” (priority 1990, dated 1993)
